Assay results reported in US20050238628A1, “Methods for treating cancer” (priority 2004, published 2005).
“Also recorded” adds a separate entry of the source.

What was measured:
[1] = test system: Ba/F3 cells expressing EpoR/Abl mixed with Ba/F3 cells expressing GyrB/Flt3; assay: Mixed culture of EpoR/Abl and GyrB/Flt3 Ba/F3 cells, HA tag flow cytometry; assay type: cell-based; conditions: coumermycin 1 nM, absence of IL-3, 4 days, flow cytometry for HA tag; FIG. 2
Method: A cDNA containing the EpoRIAbl construct was used to transduce Ba/F3 cells by retroviral gene transfer. After two days, IL-3 containing medium was washed away, and cells were cultured in the presence of erythropoietin (3 units/ml), without IL-3, to generate a polyclonal pool of erythropoietin dependent cells.
(§1) An MSCV-based vector was constructed that encodes a fusion protein containing a myristylation domain linked to DNA gyrase B, which in turn is linked to the intracellular portion of murine flt-3, which in turn is linked to an HA epitope tag. […] Ba/F3 cells expressing the GyrB/Flt3 construct can be distinguished from Ba/F3 cells expressing EpoR/Abl using intracellular flow cytometry with an antibody directed against the HA tag.
After 4 days, the frequency of cells expressing the HA tag was determined by flow cytometry.

[2] = test system: Ba/F3 cells expressing the GyrB/Flt3 construct; assay: Growth of Ba/F3 cells expressing GyrB/Flt3 in the presence of the CID coumermycin; assay type: cell-based; conditions: FIG. 1
Source text: as §1

Reh cells (EpoR) = assay: STAT5 phosphorylation in Reh cells upon addition of erythropoietin; assay type: cell-based; conditions: human TEL/AML1+ ALL line
Source text: A number of nonerythroid cell lines have been examined for EpoR expression.

Ba/F3EpoRAbl cells = conditions: nude mice, tail vein injection of cells followed by injections of erythropoietin; cited from earlier work

Substance	erythropoietin responsive (HA-negative) cells in mixed culture [1]	growth of Ba/F3 cells in the presence of the CID [2]	STAT5 phosphorylation (Reh cells (EpoR))	death of mice injected with Ba/F3EpoRAbl cells (Ba/F3EpoRAbl cells)
coumermycin	sharp reduction in erythropoietin responsive (HA-negative) cells	capable of growth; also recorded: capable of group		
erythropoietin			exhibit STAT5 phosphorylation	induce death with a timecourse that is dependent on the concentration of exogenously administered Epo
